{
  "source": "patent US7759366B2",
  "about": "(Sanofi-Aventis, priority 2006, dated 2010)",
  "data": [
    {"target": "hCB1R (Homo sapiens, UniProt P21554)", "sequence (P21554 whole entry)": "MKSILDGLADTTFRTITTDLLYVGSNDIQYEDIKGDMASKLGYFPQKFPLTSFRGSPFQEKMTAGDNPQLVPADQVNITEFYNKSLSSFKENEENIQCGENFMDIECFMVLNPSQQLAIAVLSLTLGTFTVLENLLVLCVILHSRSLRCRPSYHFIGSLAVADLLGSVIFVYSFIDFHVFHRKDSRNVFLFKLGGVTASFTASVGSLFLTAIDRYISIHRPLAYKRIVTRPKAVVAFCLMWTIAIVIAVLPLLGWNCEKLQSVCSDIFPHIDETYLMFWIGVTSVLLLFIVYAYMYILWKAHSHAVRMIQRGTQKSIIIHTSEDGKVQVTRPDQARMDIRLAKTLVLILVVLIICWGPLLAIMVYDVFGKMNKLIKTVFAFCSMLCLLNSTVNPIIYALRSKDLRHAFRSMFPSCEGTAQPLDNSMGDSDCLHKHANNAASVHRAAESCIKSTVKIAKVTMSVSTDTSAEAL", "assay": "In vitro functional assay (FLIPR, intracellular Ca2+) with recombinant HEK293 cells, CB1", "format": "cell-based", "set-up": "expressed in transfected cells; host or cells: HEK293", "conditions": "recombinant HEK293 cells expressing CB1 and Galpha16; 20 min preincubation, then reference agonist; Ca2+ change; read-out: hCB1R: FLIPR; IC50", "text": "In Vitro Functional Assays with Recombinant Cells:", "units": {"IC50": "nM"}, "values": [
      {"smiles": "CC1(C)C(=O)N(c2ccc(C#N)c(C(F)(F)F)c2)C(=O)N1Cc1c(Cl)cc(Cl)cc1Nc1ccc(Cl)cc1", "note": "[Example 37, 4-{3-[2,4-dichloro-6-(4-chlorophenylamino)benzyl]-4,4-dimethyl-2,5-dioxoimidazolidin-1-yl}-2-trifluoromethylbenzonitrile]", "IC50": 21},
      {"smiles": "CC(C)Oc1ccc(Nc2ccccc2CN2C(=O)N(c3ccc(C#N)c(C(F)(F)F)c3)C(=O)C2(C)C)cc1", "note": "[Example 127, 4-{3-[2-(4-isopropoxyphenylamino)benzyl]-4,4-dimethyl-2,5-dioxoimidazolidin-1-yl}-2-trifluoromethylbenzonitrile]", "IC50": 7},
      {"smiles": "CC1(C)C(=O)N(c2ccc(C#N)c(C(F)(F)F)c2)C(=O)N1Cc1ccccc1Nc1cnc(O)nc1O", "note": "[Example 246, 4-{3-[2-(2,4-Dihydroxypyrimidin-5-ylamino)benzyl]-4,4-dimethyl-2,5-dioxoimidazolidin-1-yl}-2-trifluoromethylbenzonitrile]", "IC50": 7},
      {"smiles": "CC1(C)C(=O)N(c2ccc(C#N)c(-c3ccc(F)cc3)c2)C(=O)N1Cc1ccc(F)cc1Nc1ccc(C(=O)O)cc1", "note": "[Example 258, 4-{2-[3-(6-Cyano-4′-fluorobiphenyl-3-yl)-5,5-dimethyl-2,4-dioxoimidazolidin-1-ylmethyl]-5-fluorophenylamino}benzoic acid]", "IC50": 31},
      {"smiles": "CC1(C)C(=O)N(c2ccc(C#N)c(C(F)(F)F)c2)C(=O)N1Cc1c(Cl)cc(Cl)cc1Nc1ccc(F)cc1", "note": "[Example 35, 4-{3-[2,4-Dichloro-6-(4-fluorophenylamino)benzyl]-4,4-dimethyl-2,5-dioxoimidazolidin-1-yl}-2-trifluoromethylbenzonitrile]", "IC50": 15},
      {"smiles": "CC1(C)C(=O)N(c2ccc(C#N)c(C(F)(F)F)c2)C(=O)N1Cc1cc(Cl)cc(Cl)c1Nc1ccc(F)cc1", "note": "[Example 38, 4-{3-[3,5-Dichloro-2-(4-fluorophenylamino)benzyl]-4,4-dimethyl-2,5-dioxoimidazolidin-1-yl}-2-trifluoromethylbenzonitrile]", "IC50": 70},
      {"smiles": "COc1ccc(CN2C(=O)N(c3ccc(C#N)c(C(F)(F)F)c3)C(=O)C2(C)C)c(Nc2ccc(C(=O)O)cc2)c1", "note": "[Example 130, 4-{2-[3-(4-cyano-3-trifluoromethylphenyl)-5,5-dimethyl-2,4-dioxoimidazolidin-1-ylmethyl]-5-methoxyphenylamino}benzoic acid]", "IC50": 32},
      {"smiles": "CC1(C)C(=O)N(c2ccc(C#N)c(C3CC3)c2)C(=O)N1Cc1ccc(F)cc1Nc1ccc(C(=O)O)cc1", "note": "[Example 159, 4-{2-[3-(4-cyano-3-cyclopropylphenyl)-5,5-dimethyl-2,4-dioxoimidazolidin-1-ylmethyl]-5-fluorophenylamino}benzoic acid]", "IC50": 2},
      {"smiles": "CC1(C)C(=O)N(c2ccc(F)c(C(F)(F)F)c2)C(=O)N1Cc1ccc(F)cc1Nc1ccc2c(c1)C(=O)CCO2", "note": "[Example 239, 1-[4-fluoro-2-(4-oxochroman-6-ylamino)benzyl]-3-(4-fluoro-3-trifluoromethylphenyl)-5,5-dimethylimidazolidine-2,4-dione]", "IC50": 103},
      {"smiles": "CC1(C)C(=O)N(c2ccc(C#N)c(C(F)(F)F)c2)C(=O)N1Cc1c(Cl)cc(Cl)cc1Nc1ccc(C(=O)O)cc1", "note": "[Example 105, 4-{3,5-dichloro-2-[3-(4-cyano-3-trifluoromethylphenyl)-5,5-dimethyl-2,4-dioxoimidazolidin-1-ylmethyl]phenylamino}benzoic acid]", "IC50": 49},
      {"smiles": "CC1(C)C(=O)N(c2ccc(C#N)c(C(F)(F)F)c2)C(=O)N1Cc1ccccc1Nc1ccc(C(=O)O)c(O)c1", "note": "[Example 243]", "IC50": 99},
      {"smiles": "CC(C)(C)Oc1ncc(Nc2ccccc2CN2C(=O)N(c3ccc(C#N)c(C(F)(F)F)c3)C(=O)C2(C)C)c(OC(C)(C)C)n1", "note": "[Example 208, 4-{3-[2-(2,4-di-tert-butoxypyrimidin-5-ylamino)benzyl]-4,4-dimethyl-2,5-dioxoimidazolidin-1-yl}-2-trifluoromethylbenzonitrile]", "IC50": 13}
    ]}
  ]
}
